Measured values reported in patent publication US20260184707A1, “PHARMACEUTICAL COMPOUNDS FOR THE TREATMENT OF COMPLEMENT MEDIATED DISORDERS” (ALEXION PHARMACEUTICALS, INC., priority 2022, published 2026).

Molecular target: T1, Human complement C1s enzyme (Homo sapiens, UniProt P09871)
T1 construct: purified from human serum, Complement Technology, Inc; purchased Complement Technology, Inc; host or cells: human serum (plasma-derived native protein)
T1 sequence (P09871 438-688 limits assumed): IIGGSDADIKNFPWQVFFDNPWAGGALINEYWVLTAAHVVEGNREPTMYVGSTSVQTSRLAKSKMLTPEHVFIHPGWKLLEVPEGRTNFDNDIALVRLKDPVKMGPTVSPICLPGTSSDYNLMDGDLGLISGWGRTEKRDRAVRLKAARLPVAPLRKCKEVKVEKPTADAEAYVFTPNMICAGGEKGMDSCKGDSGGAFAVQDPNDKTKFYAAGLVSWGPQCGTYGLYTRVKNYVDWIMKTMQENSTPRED
T1 sequence (P09871 16-437 partner limits assumed): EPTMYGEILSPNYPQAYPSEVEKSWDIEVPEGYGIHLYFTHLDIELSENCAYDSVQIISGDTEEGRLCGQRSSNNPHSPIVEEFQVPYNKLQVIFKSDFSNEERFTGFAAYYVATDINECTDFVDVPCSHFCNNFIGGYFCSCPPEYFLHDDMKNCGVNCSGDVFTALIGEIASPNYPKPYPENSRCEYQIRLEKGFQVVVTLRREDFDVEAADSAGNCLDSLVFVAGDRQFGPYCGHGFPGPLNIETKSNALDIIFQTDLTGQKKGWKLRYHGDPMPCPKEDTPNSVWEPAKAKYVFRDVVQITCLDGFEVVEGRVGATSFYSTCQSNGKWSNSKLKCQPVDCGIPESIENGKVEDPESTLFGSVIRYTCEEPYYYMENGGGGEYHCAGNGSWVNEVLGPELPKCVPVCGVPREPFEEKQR
Experiment: Human C1s enzyme assay
Type: biochemical
Details: human complement C1s enzyme 1.16 nM, substrate Z-L-Lys-SBzl, A405; read-out: IC50 (Stars)
Procedure: The […] values of the compounds of Table 1 were determined with the human C1s enzyme assay described below. Other standard complement assays are also available.
Human complement C1s enzyme (purified from human serum, Complement Technology, Inc.) at 1.16 nM final concentration was incubated with test compound at various concentrations for 5 min at room temperature in 50 mM Tris, 1 M NaCl, pH 7.5. A synthetic substrate Z-L-Lys-SBzl and DTNB (Ellman's reagent) were added to final concentrations of 100 μM each. Absorbance at 405 nm (A405) was recorded at 30 second intervals for […] using a microplate spectrophotometer. IC values were calculated by nonlinear regression of complement C1s reaction rates as a function of test compound concentration.
[…]; ND indicates a compound for which the IC50 value is not determined.

SMILES	IC50
O=C(Cn1c(-c2ccccc2)ncc(NCCCCc2ccc(Oc3ccccc3)cc2)c1=O)NCc1cc2cnccc2[nH]1 [Compound 21, N-((1H-pyrrolo[3,2-c]pyridin-2-yl)methyl)-2-(6-oxo-5-((4-(4-phenoxyphenyl)butyl)amino)-2-phenylpyrimidin-1(6H)-yl)acetamide]	< 100 nM
O=C(Cn1c(-c2ccccc2)ncc(NCc2ccc3c(c2)-c2ccccc2C3(F)F)c1=O)NCc1cc2cnccc2[nH]1 [Compound 22, N-((1H-pyrrolo[3,2-c]pyridin-2-yl)methyl)-2-(5-(((9,9-difluoro-9H-fluoren-3-yl)meth-yl)amino)-6-oxo-2-phenyl-pyrimidin-1(6H)-yl)acetamide]	< 100 nM
O=C(Cn1c(-c2ccccc2)ncc(NC(=O)CCC(=O)c2ccc(Oc3ccccc3)cc2)c1=O)NCc1cc2cnccc2[nH]1 [Compound 23, N-(1-(2-(((1H-pyrrolo[3,2-c]pyridin-2-yl)methyl)amino)-2-oxoethyl)-6-oxo-2-phenyl-1,6-dihydropyrimidin-5-yl)-4-oxo-4-(4-phenoxyphenyl)butanamide]	< 100 nM
O=C(Cn1c(-c2ccccc2)ncc(NC(=O)Cc2ccccc2)c1=O)NCc1cc2cnccc2[nH]1 [Compound 24, N-((1H-pyrrolo[3,2-c]pyridin-2-yl)methyl)-2-(6-oxo-2-phen-yl-5-(2-phenylacetamido)pyr-imidin-1(6H)-yl)acetamide]	< 100 nM
O=C(Cn1c(-c2ccccc2)ncc(-c2ccccc2)c1=O)NCc1cc2cnccc2[nH]1 [Compound 25, N-((1H-pyrrolo[3,2-c]pyridin-2-yl)methyl)-2-(6-oxo-2,5-diphenylpyrimidin-1(6H)-yl)acetamide]	> 1000 nM
O=C(Cn1c(-c2ccccc2)ncc(NCc2ccc3c(c2)oc2ccccc23)c1=O)NCc1cc2cnccc2[nH]1 [Compound 26, N-((1H-pyrrolo[3,2-c]pyridin-2-yl)methyl)-2-(5-((dibenzo[b,d]furan-3-ylmethyl)amino)-6-oxo-2-phenylpyrimidin-1(6H)-yl)acetamide]	< 100 nM
O=C(Cn1c(-c2ccccc2)ncc(NCCCc2ccc(Cl)cc2)c1=O)NCc1cc2cnccc2[nH]1 [Compound 27, N-((1H-pyrrolo[3,2-c]pyridin-2-yl)methyl)-2-(5-((3-(4-chlorophenyl)propyl)amino)-6-oxo-2-phenylpyrimidin-1(6H)-yl)acetamide]	< 100 nM
N#Cc1ccc(CCNc2cnc(-c3ccccc3)n(CC(=O)NCc3cc4cnccc4[nH]3)c2=O)cc1 [Compound 28, N-((1H-pyrrolo[3,2-c]pyridine-2-yl)methyl)-2-(5-((4-cyanophenethyl)amino)-6-oxo-2-phenylpyrimidin-1(6H)-yl)acetamide]	< 100 nM
O=C(Cn1c(-c2ccccc2)ncc(NC(=O)c2ccc(-c3ccccc3)cc2)c1=O)NCc1cc2cnccc2[nH]1 [Compound 29, N-(1-(2-(((1H-pyrrolo[3,2-c]pyridin-2-yl)methyl)amino)-2-oxoethyl)-6-oxo-2-phenyl-1,6-dihydropyrimidin-5-yl)-[1,1′-biphenyl]-4-carboxamide]	< 100 nM
O=C(Cn1c(-c2ccccc2)ncc(-c2nc3c(s2)CCCC3)c1=O)NCc1cc2cnccc2[nH]1 [Compound 30, N-((1H-pyrrolo[3,2-c]pyridin-2-yl)methyl)-2-(6-oxo-2-phenyl-5-(4,5,6,7-tetrahydrobenzo[d]thiazol-2-yl)pyrimidin-1(6H)-yl)acetamide]	> 1000 nM
O=C(Cn1c(-c2ccccc2)ncc(NC(=O)OCc2ccccc2)c1=O)NCc1cc2cnccc2[nH]1 [Compound 31, benzyl (1-(2-(((1H-pyrrolo[3,2-c]pyridin-2-yl)methyl)amino)-2-oxoethyl)-6-oxo-2-phenyl-1,6-dihydropyrimidin-5-yl)-carbamate]	> 1000 nM
O=C(Cn1c(-c2ccccc2)ncc(NCc2ccc3oc4ccccc4c3c2)c1=O)NCc1cc2cnccc2[nH]1 [Compound 32, N-((1H-pyrrolo[3,2-c]pyridin-2-yl)methyl)-2-(5-((dibenzo [b,d]furan-2-ylmethyl)amino)-6-oxo-2-phenylpyrimidin-1(6H)-yl)acetamide]	< 100 nM
O=C(Cn1c(-c2ccccc2)ncc(NCCNC(=O)c2ccc(Oc3ccccc3)cc2)c1=O)NCc1cc2cnccc2[nH]1 [Compound 33, N-(2-((1-(2-(((1H-pyrrolo[3,2-c]pyridin-2-yl)methyl)amino)-2-oxoethyl)-6-oxo-2-phenyl-1,6-dihydropyrimidin-5-yl)amino)ethyl)-4-phenoxybenzamide]	< 100 nM
O=C(Cn1c(-c2ccccc2)ncc(NCCCc2ccc(OC(F)F)cc2)c1=O)NCc1cc2cnccc2[nH]1 [Compound 34, N-((1H-pyrrolo[3,2-c]pyridin-2-yl)methyl)-2-(5-((3-(4-(difluoromethoxy)phenyl)prop-yl)amino)-6-oxo-2-phenyl-pyrimidin-1(6H)-yl)acetamide]	< 100 nM
O=C(Cn1c(-c2ccccc2)ncc(NCCNC(=O)c2ccc3oc4ccccc4c3c2)c1=O)NCc1cc2cnccc2[nH]1 [Compound 35, N-(2-((1-(2-(((1H-pyrrolo[3,2-c]pyridin-2-yl)methyl)amino)-2-oxoethyl)-6-oxo-2-phenyl-1,6-dihydropyrimidin-5-yl)amino)ethyl)dibenzo[b,d]furan-2-carboxamide]	< 100 nM
O=C(Cn1c(-c2ccccc2)ncc(NCCNC(=O)c2ccc3c(c2)-c2ccccc2C3(F)F)c1=O)NCc1cc2cnccc2[nH]1 [Compound 36, N-(2-((1-(2-(((1H-pyrrolo[3,2-c]pyridin-2-yl)methyl)amino)-2-oxoethyl)-6-oxo-2-phenyl-1,6-dihydropyrimidin-5-yl)-amino)ethyl)-9,9-difluoro-9H-fluorene-3-carboxamide]	< 100 nM
O=C(Cn1c(-c2ccccc2)ncc(N2CCN(c3ccccc3)CC2)c1=O)NCc1cc2cnccc2[nH]1 [Compound 37, N-((1H-pyrrolo[3,2-c]pyridin-2-yl)methyl)-2-(6-oxo-2-phen-yl-5-(4-phenylpiperazin-1-yl)-pyrimidin-1(6H)-yl)acetamide]	100 to 1000 nM
O=C(Cn1c(-c2ccccc2)ncc(NC(=O)Cc2ccc(Oc3ccccc3)cc2)c1=O)NCc1cc2cnccc2[nH]1 [Compound 38, N-((1H-pyrrolo[3,2-c]pyridin-2-yl)methyl)-2-(6-oxo-5-(2-(4-phenoxyphenyl)acetamido)-2-phenylpyrimidin-1(6H)-yl)-acetamide]	< 100 nM
O=C(Cn1c(-c2ccccc2)ncc(NCCCc2ccc(OC(F)(F)F)cc2)c1=O)NCc1cc2cnccc2[nH]1 [Compound 39, N-((1H-pyrrolo[3,2-c]pyridin-2-yl)methyl)-2-(6-oxo-2-phen-yl-5-((3-(4-(trifluoromethoxy)-phenyl)propyl)amino)pyrimi-din-1(6H)-yl)acetamide]	< 100 nM
O=C(Cn1c(-c2ccccc2)ncc(NCCCc2ccc3oc4ccccc4c3c2)c1=O)NCc1cc2cnccc2[nH]1 [Compound 40, N-((1H-pyrrolo[3,2-c]pyridin-2-yl)methyl)-2-(5-((3-(dibenzo [b,d]furan-2-yl)propyl)amino)-6-oxo-2-phenylpyrimidin-1(6H)-yl)acetamide]	< 100 nM
O=C(Cn1c(-c2ccccc2)ncc(NCCCc2ccc(C(=O)c3ccccc3)cc2)c1=O)NCc1cc2cnccc2[nH]1 [Compound 41, N-((1H-pyrrolo[3,2-c]pyridin-2-yl)methyl)-2-(5-((3-(4-benzo-ylphenyl)propyl)amino)-6-oxo-2-phenylpyrimidin-1(6H)-yl)-acetamide]	< 100 nM
CS(=O)(=O)c1ccc(CCCNc2cnc(-c3ccccc3)n(CC(=O)NCc3cc4cnccc4[nH]3)c2=O)cc1 [Compound 42, N-((1H-pyrrolo[3,2-c]pyridin-2-yl)methyl)-2-(5-((3-(4-(methylsulfonyl)phenyl)propyl)amino)-6-oxo-2-phenylpyrimidin-1(6H)-yl)acetamide]	< 100 nM
O=C(Cn1c(-c2ccccc2)ncc(NCc2cc3ccc2CCc2ccc(cc2)CC3)c1=O)NCc1cc2cnccc2[nH]1 [Compound 43, 2-(5-((1,4(1,4)-dibenzena-cyclohexaphane-1(2)-ylmeth-yl)amino)-6-oxo-2-phenylpyr-imidin-1(6H)-yl)-N-((1H-pyr-rolo[3,2-c]pyridin-2-yl)meth-yl)acetamide]	> 1000 nM
O=C(Cn1c(-c2ccccc2)ncc(N2CCn3c(nnc3C(F)(F)F)C2)c1=O)NCc1cc2cnccc2[nH]1 [Compound 44, N-((1H-pyrrolo[3,2-c]pyridin-2-yl)methyl)-2-(6-oxo-2-phen-yl-5-(3-(trifluoromethyl)-5,6-dihydro-[1,2,4]triazolo[4,3-a]pyrazin-7(8H)-yl)pyrimidin-1(6H)-yl)acetamide]	100 to 1000 nM
